Data: patent publication US7348427B2, “Antipathogenic benzamide compounds” (Genesoft Pharmaceuticals, Inc., priority 2001, dated 2008)

Columns and labels:
[1] = tested on: Bacillus cereus (ATCC 11778); experiment: MIC, NCCLS broth microdilution assay; type: cell-based; settings: A = B. cereus ATCC 11778
In short: (§1)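 Minimal inhibitory concentration is reported, obtained by the NCCLS broth microdilution method (documents M7-A4, M11-A4, M27-T). For the fungal strain, the procedure of the 1995 Manual of Clinical Microbiology applies.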

[2] = tested on: Enterococcus faecium (ATCC 51559, a vancomycin resistant strain (VRE)); experiment: MIC, NCCLS broth microdilution assay; type: cell-based; settings: D = E. faecium ATCC 51559
In short: as §1

[3] = tested on: Staphylococcus aureus (ATCC 13709, a methicillin sensitive strain (MSSA)); experiment: MIC, NCCLS broth microdilution assay; type: cell-based; settings: E = S. aureus ATCC 13709
In short: as §1

[4] = tested on: Staphylococcus aureus (ATCC 27660, a methicillin resistant strain (MRSA)); experiment: MIC, NCCLS broth microdilution assay; type: cell-based; settings: F = S. aureus ATCC 27660
In short: as §1

[5] = tested on: Staphylococcus epidermidis (ATCC 12228); experiment: MIC, NCCLS broth microdilution assay; type: cell-based; settings: G = S. epidermidis ATCC 12228
In short: as §1

[6] = tested on: Streptococcus pneumoniae (ATCC 51422, a penicillin resistant strain (PRSP)); experiment: MIC, NCCLS broth microdilution assay; type: cell-based; settings: I = S. pneumoniae ATCC 51422
In short: as §1

[7] = tested on: Candida albicans (ATCC 38247); experiment: Antifungal MIC assay; type: cell-based; settings: B = C. albicans ATCC 38247
In short: as §1

[8] = tested on: E. faecalis ATCC 29212; experiment: MIC, NCCLS broth microdilution assay; type: cell-based, Enterococcus faecalis; settings: C = E. faecalis ATCC 29212
In short: (§2)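 MICs were determined by NCCLS broth microdilution following documents M7-A4 and M11-A4 (1997).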

[9] = tested on: S. pneumoniae ATCC 49619; experiment: MIC, NCCLS broth microdilution assay; type: cell-based, Streptococcus pneumoniae; settings: H = S. pneumoniae ATCC 49619
In short: as §2

[10] = Staphylococcus aureus, read-out: Minimum Inhibitory Concentration (MIC)

Cn1cc(NC(=O)c2cc(NC(=O)c3ccc(Cl)cc3F)c[nH]2)cc1C(=O)NCCN1CCC(F)(F)CC1 [Compound A-22]
+++ (+++ = MIC ≦ 4): Minimum Inhibitory Concentration (MIC) [1] | Minimum Inhibitory Concentration (MIC) [2] | Minimum Inhibitory Concentration (MIC) [3] | Minimum Inhibitory Concentration (MIC) [4] | Minimum Inhibitory Concentration (MIC) [5] | Minimum Inhibitory Concentration (MIC) [6] | Minimum Inhibitory Concentration (MIC) [8] | Minimum Inhibitory Concentration (MIC) [9]
>32 µg/mL: Minimum Inhibitory Concentration (MIC) [7]

Cn1cc(NC(=O)c2cc(NC(=O)c3cc(NC(=O)c4ccc(Cl)cc4F)c[nH]3)cn2C)cc1C(=O)NCC[N+]1(C)CCOCC1 [Compound A-28]
4 to 12 µg/mL: MIC ([8]; Enterococcus faecalis, ATCC29212, read-out: Minimum Inhibitory Concentration (MIC))
≤ 4 µg/mL: MIC ([1]; Bacillus cereus, ATCC11778, read-out: Minimum Inhibitory Concentration (MIC)) | MIC [3, 10] | MIC [4, 10] | MIC ([5]; Staphylococcus epidermidis, ATCC12228, read-out: Minimum Inhibitory Concentration (MIC)) | MIC ([6]; Streptococcus pneumoniae, read-out: Minimum Inhibitory Concentration (MIC)) | MIC ([7]; Candida albicans, ATCC38247, read-out: Minimum Inhibitory Concentration (MIC)) | MIC ([9]; Streptococcus pneumoniae, ATCC49619, read-out: Minimum Inhibitory Concentration (MIC))
12 to 32 µg/mL: MIC ([2]; Enterococcus faecium, read-out: Minimum Inhibitory Concentration (MIC))

Cn1cc(NC(=O)c2cc(NC(=O)c3cc(NC(=O)c4ccc(F)cc4F)cn3C)cn2C)cc1C(=O)NCCN1CCOCC1 [Compound B-1]
+++ (+++ = MIC ≦ 4): Minimum Inhibitory Concentration (MIC) [1] | Minimum Inhibitory Concentration (MIC) [2] | Minimum Inhibitory Concentration (MIC) [3] | Minimum Inhibitory Concentration (MIC) [4] | Minimum Inhibitory Concentration (MIC) [5] | Minimum Inhibitory Concentration (MIC) [6] | Minimum Inhibitory Concentration (MIC) [8] | Minimum Inhibitory Concentration (MIC) [9]
>32 µg/mL: Minimum Inhibitory Concentration (MIC) [7]

Cn1cc(NC(=O)c2cc(NC(=O)c3cc(NC(=O)c4ccc(F)cc4F)cn3C)cn2C)cc1C(=O)NCCN1CCSCC1 [Compound B-3]
+++ (+++ = MIC ≦ 4): Minimum Inhibitory Concentration (MIC) [1] | Minimum Inhibitory Concentration (MIC) [3] | Minimum Inhibitory Concentration (MIC) [4] | Minimum Inhibitory Concentration (MIC) [5] | Minimum Inhibitory Concentration (MIC) [6] | Minimum Inhibitory Concentration (MIC) [8] | Minimum Inhibitory Concentration (MIC) [9]
>32 µg/mL: Minimum Inhibitory Concentration (MIC) [7]
+ (+ = 12 ≦ MIC ≦ 32): Minimum Inhibitory Concentration (MIC) [2]

Cn1cc(NC(=O)c2cc(NC(=O)c3ccc(F)cc3F)cn2C)cc1C(=O)NCCN1CCSCC1 [Compound B-11]
+++ (+++ = MIC ≦ 4): Minimum Inhibitory Concentration (MIC) [1] | Minimum Inhibitory Concentration (MIC) [2] | Minimum Inhibitory Concentration (MIC) [3] | Minimum Inhibitory Concentration (MIC) [4] | Minimum Inhibitory Concentration (MIC) [5] | Minimum Inhibitory Concentration (MIC) [6] | Minimum Inhibitory Concentration (MIC) [8] | Minimum Inhibitory Concentration (MIC) [9]
>32 µg/mL: Minimum Inhibitory Concentration (MIC) [7]

Cn1cc(NC(=O)c2cc(NC(=O)c3cc(NC(=O)c4ccc(F)cc4F)cn3C)cn2C)cc1C(=O)NCCc1ccncc1 [Compound B-22]
>32 µg/mL: Minimum Inhibitory Concentration (MIC) [7]
+++ (+++ = MIC ≦ 4): Minimum Inhibitory Concentration (MIC) [1] | Minimum Inhibitory Concentration (MIC) [2] | Minimum Inhibitory Concentration (MIC) [3] | Minimum Inhibitory Concentration (MIC) [4] | Minimum Inhibitory Concentration (MIC) [5] | Minimum Inhibitory Concentration (MIC) [6] | Minimum Inhibitory Concentration (MIC) [8] | Minimum Inhibitory Concentration (MIC) [9]

Cn1cc(NC(=O)c2cc(NC(=O)c3cc(NC(=O)c4ccc(F)cc4F)cn3C)cn2C)cc1C(=O)NCCc1cccnc1 [Compound B-24]
>32 µg/mL: Minimum Inhibitory Concentration (MIC) [7]
+++ (+++ = MIC ≦ 4): Minimum Inhibitory Concentration (MIC) [1] | Minimum Inhibitory Concentration (MIC) [2] | Minimum Inhibitory Concentration (MIC) [3] | Minimum Inhibitory Concentration (MIC) [4] | Minimum Inhibitory Concentration (MIC) [5] | Minimum Inhibitory Concentration (MIC) [6] | Minimum Inhibitory Concentration (MIC) [8] | Minimum Inhibitory Concentration (MIC) [9]

Cn1cc(NC(=O)c2ccc(F)cc2F)cc1C(=O)Nc1cc(C(=O)Nc2cc(C(=O)N3CCC(O)CC3)n(C)c2)n(C)c1 [Compound B-26]
>32 µg/mL: Minimum Inhibitory Concentration (MIC) [1] | Minimum Inhibitory Concentration (MIC) [2] | Minimum Inhibitory Concentration (MIC) [3] | Minimum Inhibitory Concentration (MIC) [4] | Minimum Inhibitory Concentration (MIC) [5] | Minimum Inhibitory Concentration (MIC) [6] | Minimum Inhibitory Concentration (MIC) [7] | Minimum Inhibitory Concentration (MIC) [8] | Minimum Inhibitory Concentration (MIC) [9]

Cn1cc(NC(=O)c2cc(NC(=O)c3cc(NC(=O)c4ccc(F)cc4F)cn3C)cn2C)cc1C(=O)NCCN1CCC(F)(F)CC1 [Compound B-27]
+++ (+++ = MIC ≦ 4): Minimum Inhibitory Concentration (MIC) [1] | Minimum Inhibitory Concentration (MIC) [2] | Minimum Inhibitory Concentration (MIC) [3] | Minimum Inhibitory Concentration (MIC) [4] | Minimum Inhibitory Concentration (MIC) [5] | Minimum Inhibitory Concentration (MIC) [6] | Minimum Inhibitory Concentration (MIC) [8] | Minimum Inhibitory Concentration (MIC) [9]
>32 µg/mL: Minimum Inhibitory Concentration (MIC) [7]

Cn1cc(NC(=O)c2cc(NC(=O)c3cc(NC(=O)c4ccccc4F)cn3C)cn2C)cc1C(=O)NCCN1CCSCC1 [Compound B-41]
>32 µg/mL: Minimum Inhibitory Concentration (MIC) [7]
+++ (+++ = MIC ≦ 4): Minimum Inhibitory Concentration (MIC) [1] | Minimum Inhibitory Concentration (MIC) [2] | Minimum Inhibitory Concentration (MIC) [3] | Minimum Inhibitory Concentration (MIC) [4] | Minimum Inhibitory Concentration (MIC) [5] | Minimum Inhibitory Concentration (MIC) [6] | Minimum Inhibitory Concentration (MIC) [8] | Minimum Inhibitory Concentration (MIC) [9]

Cn1cc(NC(=O)c2cc(NC(=O)c3ccc(Cl)cc3F)cn2C)cc1C(=O)NCCN1CCOCC1 [Compound B-48]
+++ (+++ = MIC ≦ 4): Minimum Inhibitory Concentration (MIC) [1] | Minimum Inhibitory Concentration (MIC) [2] | Minimum Inhibitory Concentration (MIC) [3] | Minimum Inhibitory Concentration (MIC) [5] | Minimum Inhibitory Concentration (MIC) [6] | Minimum Inhibitory Concentration (MIC) [8] | Minimum Inhibitory Concentration (MIC) [9]
>32 µg/mL: Minimum Inhibitory Concentration (MIC) [7]
++ (++ = 4 < MIC < 12): Minimum Inhibitory Concentration (MIC) [4]

Cn1cc(NC(=O)c2cc(NC(=O)c3cc(NC(=O)c4ccc(Cl)cc4F)cn3C)cn2C)cc1C(=O)NCCN1CCSCC1 [Compound B-49]
+++ (+++ = MIC ≦ 4): Minimum Inhibitory Concentration (MIC) [1] | Minimum Inhibitory Concentration (MIC) [2] | Minimum Inhibitory Concentration (MIC) [3] | Minimum Inhibitory Concentration (MIC) [4] | Minimum Inhibitory Concentration (MIC) [5] | Minimum Inhibitory Concentration (MIC) [6] | Minimum Inhibitory Concentration (MIC) [8] | Minimum Inhibitory Concentration (MIC) [9]
>32 µg/mL: Minimum Inhibitory Concentration (MIC) [7]

Cn1cc(NC(=O)c2cc(NC(=O)c3cc(NC(=O)c4ccc(Cl)c(Cl)c4)cn3C)cn2C)cc1C(=O)NCCN1CCOCC1 [Compound B-53]
>32 µg/mL: Minimum Inhibitory Concentration (MIC) [7]
+++ (+++ = MIC ≦ 4): Minimum Inhibitory Concentration (MIC) [1] | Minimum Inhibitory Concentration (MIC) [2] | Minimum Inhibitory Concentration (MIC) [3] | Minimum Inhibitory Concentration (MIC) [4] | Minimum Inhibitory Concentration (MIC) [5] | Minimum Inhibitory Concentration (MIC) [6] | Minimum Inhibitory Concentration (MIC) [8] | Minimum Inhibitory Concentration (MIC) [9]

Cn1cc(NC(=O)c2cc(NC(=O)c3cc(NC(=O)c4ccc(Cl)cc4)cn3C)cn2C)cc1C(=O)NCCN1CCSCC1 [Compound B-58]
++ (++ = 4 < MIC < 12): Minimum Inhibitory Concentration (MIC) [5]
+++ (+++ = MIC ≦ 4): Minimum Inhibitory Concentration (MIC) [1] | Minimum Inhibitory Concentration (MIC) [3] | Minimum Inhibitory Concentration (MIC) [4] | Minimum Inhibitory Concentration (MIC) [6] | Minimum Inhibitory Concentration (MIC) [8] | Minimum Inhibitory Concentration (MIC) [9]
>32 µg/mL: Minimum Inhibitory Concentration (MIC) [7]
+ (+ = 12 ≦ MIC ≦ 32): Minimum Inhibitory Concentration (MIC) [2]
